Reference: ChEMBL document CHEMBL1201862, “PubChem BioAssay data set” (2004)
Calls of active or inactive are those of the source.

What was measured:
HEK293 = experiment: EBV LMP1 TES2 canonical NF-kB signalling blockers – cell-based, HEK293, luciferase, cherry-pick, dose response (AID 588343); assay type: functional; details: Homo sapiens
[1] = blockers of CRF-binding protein–CRF-R2 complex – cell-based, uHTS hits, 384-well, dose response (AID 651639); assay type: functional, Homo sapiens; details: read-out: IC50_Mean
[2] = target: T1, Corticotropin-releasing factor receptor 2/Corticotropin-releasing factor-binding protein (Homo sapiens, UniProt P24387+Q13324); experiment: Dose Response confirmation of uHTS hits for small molecule antagonists of the CRF-binding protein and CRF-R2 receptor complex.; assay type: functional; details: read-out: IC50_Mean
T1 sequence (Q13324 whole entry): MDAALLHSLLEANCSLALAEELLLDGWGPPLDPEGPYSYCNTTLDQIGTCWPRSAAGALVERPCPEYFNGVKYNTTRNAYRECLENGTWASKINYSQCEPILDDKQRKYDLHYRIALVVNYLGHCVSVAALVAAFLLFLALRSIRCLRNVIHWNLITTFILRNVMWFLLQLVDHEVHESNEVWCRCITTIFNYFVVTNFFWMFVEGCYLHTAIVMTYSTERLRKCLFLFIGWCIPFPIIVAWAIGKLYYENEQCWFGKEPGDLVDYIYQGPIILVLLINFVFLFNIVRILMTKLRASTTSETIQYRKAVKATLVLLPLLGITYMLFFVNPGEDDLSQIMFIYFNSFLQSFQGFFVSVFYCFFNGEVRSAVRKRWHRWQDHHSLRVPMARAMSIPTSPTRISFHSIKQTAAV
T1 sequence (P24387 whole entry): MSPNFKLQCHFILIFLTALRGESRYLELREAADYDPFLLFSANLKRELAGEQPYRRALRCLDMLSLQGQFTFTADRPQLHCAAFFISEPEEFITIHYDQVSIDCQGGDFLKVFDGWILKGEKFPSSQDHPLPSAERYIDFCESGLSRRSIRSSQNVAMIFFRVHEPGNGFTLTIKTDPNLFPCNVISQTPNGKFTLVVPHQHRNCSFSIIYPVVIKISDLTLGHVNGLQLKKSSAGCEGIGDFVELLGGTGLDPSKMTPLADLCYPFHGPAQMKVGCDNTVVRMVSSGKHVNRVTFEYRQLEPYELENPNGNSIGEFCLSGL

[3] = target: T1, Corticotropin-releasing factor receptor 2/Corticotropin-releasing factor-binding protein; experiment: activators of CRF receptor 2 with binding protein – uHTS hits, confirmation (AID 602473); assay type: functional; details: read-out: EC50_Mean
Cytochrome P450 1A2 = target: T2, Cytochrome P450 1A2 (Homo sapiens, UniProt P05177);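 note: PubChem cytochrome P450 panel assay, CYP1A2 panel member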
T2 sequence (P05177 whole entry): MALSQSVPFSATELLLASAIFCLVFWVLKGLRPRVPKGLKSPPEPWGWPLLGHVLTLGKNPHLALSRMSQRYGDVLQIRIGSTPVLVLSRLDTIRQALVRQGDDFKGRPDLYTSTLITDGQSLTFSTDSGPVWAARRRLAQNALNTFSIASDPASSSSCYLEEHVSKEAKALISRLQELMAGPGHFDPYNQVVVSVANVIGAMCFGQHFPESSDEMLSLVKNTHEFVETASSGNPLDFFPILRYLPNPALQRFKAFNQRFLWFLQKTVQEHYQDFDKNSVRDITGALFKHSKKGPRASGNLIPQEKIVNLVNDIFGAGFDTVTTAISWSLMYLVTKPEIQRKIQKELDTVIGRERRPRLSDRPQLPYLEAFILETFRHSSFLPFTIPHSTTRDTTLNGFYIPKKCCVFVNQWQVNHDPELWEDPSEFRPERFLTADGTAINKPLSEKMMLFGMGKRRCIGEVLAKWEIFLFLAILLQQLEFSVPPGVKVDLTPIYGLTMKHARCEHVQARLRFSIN

Cytochrome P450 2C9 = Cytochrome P450 2C9 (Homo sapiens, UniProt P11712)
Chain of Cytochrome P450 2C9 (P11712 whole entry): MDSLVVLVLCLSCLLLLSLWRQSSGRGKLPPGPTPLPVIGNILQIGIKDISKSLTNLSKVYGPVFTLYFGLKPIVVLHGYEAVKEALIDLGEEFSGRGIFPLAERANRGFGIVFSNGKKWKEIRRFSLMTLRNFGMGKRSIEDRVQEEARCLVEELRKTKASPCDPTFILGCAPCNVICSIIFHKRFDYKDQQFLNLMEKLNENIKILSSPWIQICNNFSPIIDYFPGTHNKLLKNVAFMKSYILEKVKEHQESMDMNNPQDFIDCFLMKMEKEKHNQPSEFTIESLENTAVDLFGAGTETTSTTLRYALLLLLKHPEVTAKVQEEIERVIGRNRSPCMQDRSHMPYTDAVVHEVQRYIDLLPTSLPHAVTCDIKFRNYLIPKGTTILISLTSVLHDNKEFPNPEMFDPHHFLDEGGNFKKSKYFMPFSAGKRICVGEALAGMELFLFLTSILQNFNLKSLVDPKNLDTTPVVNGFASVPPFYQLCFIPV

[4] = target: NAD-dependent protein deacylase sirtuin-5, mitochondrial (Homo sapiens, UniProt Q9NXA8); experiment: sirtuin-5 deacylation blockers, concentration series – biochemical, fluorescence imaging, cherry-pick, set 5, dose response (AID 720591);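 note: desuccinylation of succinyl peptide AMC substrate read as fluorescence after trypsin release; potency of inhibitors that lower fluorescence and may act on trypsin instead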
Chain of NAD-dependent protein deacylase sirtuin-5, mitochondrial (Q9NXA8 whole entry, the tested form may be a part): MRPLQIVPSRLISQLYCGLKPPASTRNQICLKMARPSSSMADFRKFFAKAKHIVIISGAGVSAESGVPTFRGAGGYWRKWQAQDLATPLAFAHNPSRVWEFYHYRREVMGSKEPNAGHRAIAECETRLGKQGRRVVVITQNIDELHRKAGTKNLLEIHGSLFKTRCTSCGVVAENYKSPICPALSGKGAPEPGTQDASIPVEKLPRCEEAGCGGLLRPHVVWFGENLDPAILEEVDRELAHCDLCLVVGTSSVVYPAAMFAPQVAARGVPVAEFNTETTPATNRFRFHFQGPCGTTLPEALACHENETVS

[5] = HIV-1 AD8 envelope cell-cell fusion blockers – cherry-pick, dose response (AID 652062); assay type: functional, cell-based;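 note: luciferase signal from cell-cell fusion driven by HIV-1 clade B AD8 Env; potency is for inhibitors of fusion seen as a drop in luminescence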
[6] = blockers of HIV-1 ZM109 envelope-driven cell-cell fusion – HeLa effector, CEM target cells, luciferase, cherry-pick, dose response (AID 652058); assay type: functional, cell-based;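 note: luciferase signal from HIV-1 Env mediated cell-cell fusion of effector and target cells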
[7] = viability loss in CEM21 cells – cell-based, CellTiter-Glo luminescence, cherry-picked, cytotoxicity control for viral fusion inhibitor project, dose response (AID 652042); assay type: functional;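 note: potency for signal decrease meaning cytotoxicity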
[8] = blockers of HIV-1 envelope-mediated cell-cell fusion – cherry-pick, dose response (AID 652057); assay type: functional, cell-based
[9] = off-target signal loss in HeLa-CEM21 co-culture – HeLa F-luc CTL cells, cherry-picked, counter-screen for HIV-1 Env fusion inhibitor project, dose response (AID 652040); assay type: functional, cell-based;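 note: potency for signal decrease marking cytotoxic or nonspecific inhibition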
Vero = experiment: viability of Vero cells under compound – cytotoxicity control for flavivirus capping enzyme inhibitors (AID 588742); assay type: functional; details: Chlorocebus sabaeus

With `Cc1ccc(OCC(=O)NNC(=S)NC(=O)C2CCCCC2)c(C)c1` the AC50 (HEK293) was 39.5 µM (active).

In the case of `Cc1ccc(NC(=O)CSc2nnc(Cn3cnc4ccccc43)o2)c(C)c1`, the IC50 [1] is reported as > 20 µM (inactive), the IC50 [2] is reported as 5.69 µM (active) and the EC50 [3] is reported as > 53 µM (inactive).

With `CCCCN(C)C(=O)c1coc(=O)c2ccccc12` the AC50 (Cytochrome P450 1A2) was 2.51 µM (inconclusive) and the AC50 (Cytochrome P450 2C9) was “inconclusive”.

In the case of `O=C1c2ccccc2C(=O)c2cc(N3CCCCC3)ccc21`, the AC50 (HEK293) is reported as 1.3 µM (active).

With `COc1ccccc1CNC(=O)C1CCC(CNS(=O)(=O)c2ccc(F)cc2)CC1` (centres undefined) the AC50 [4] was > 30 µM (inactive).

In the case of `COc1ccc(S(=O)(=O)N2CCN(C(S)=NCC3CCCO3)CC2)cc1OC` (centres undefined), the AC50 (HEK293) is reported as 268 µM (active).

For `COc1cc(OC)nc(Nc2nc(C(N)COCc3ccccc3)cs2)n1` (centres undefined), the AC50 [5] was 5.29 µM (active), the AC50 [6] was 4.17 µM (active) and the AC50 [7] was 28.3 µM (active). For the same compound, the AC50 [8] was 3.75 µM (active) and the AC50 [9] was 4.69 µM (active).

With `Cc1ccc(-c2ccc3c(c2)O[C@H](CN(C)Cc2cccnc2)[C@@H](C)CN([C@H](C)CO)S3(=O)=O)cc1` the AC50 [5] was 23.8 µM (active), the AC50 [7] was 13.7 µM (active) and the AC50 [8] was 27 µM (active).

For `O=C(c1[nH]c(C(F)(F)F)nc1-c1ccccc1)N1CCCN(Cc2ccc(F)cc2)CC1`, the AC50 [4] was > 30 µM (inactive).

In the case of `C/C(=N\NC(=O)CNc1cccc2ccccc12)c1ccc(Br)s1`, the CC50 (Vero) is reported as > 40 µM (active).
